SMILES strings stand for the structures. Residues, ends and D or L forms follow the SMILES beside them. *: point of attachment. Boc = CC(C)(C)OC(=O)*; CH2Cl = ClC* Where only a bound is given, the exact number is not on record here.

The text below walks through data of ChEMBL document CHEMBL5723035, “Affinity Biochemical Literature for EUbOPEN Chemogenomic Library” (2024).

Experiment [1] addresses T1, Histone acetyltransferase KAT7 (Homo sapiens, UniProt O95251). The experiment can be described thus: Affinity Biochemical interaction: (AlphaScreen) EUB0001094a MYST2. Format: functional. More on the design: mode of action Inhibitor, recommended concentration 1 uM.
Experiment [2] has as its target T2, Histone acetyltransferase KAT6A (Homo sapiens, UniProt Q92794). The experiment can be described thus: Affinity Biochemical interaction: (SPR) EUB0001094a MYST3. More on the design: mode of action Inhibitor, recommended concentration 1 uM.
The target of experiment [3] is T2, Histone acetyltransferase KAT6A. The experiment can be described thus: Affinity Biochemical interaction: (AlphaScreen) EUB0001094a MYST3. More on the design: mode of action Inhibitor, recommended concentration 1 uM. Format: functional. (In Alpha technology, singlet oxygen from a donor bead excites a nearby acceptor bead.)
In experiment [4] the target is T1, Histone acetyltransferase KAT7. The experiment can be described thus: Affinity Biochemical interaction: (SPR) EUB0001094a MYST2. More on the design: mode of action Inhibitor, recommended concentration 1 uM.
The target in experiment [5] is T3, Caspase-8 (Homo sapiens, UniProt Q14790). The experiment can be described thus: Affinity Biochemical interaction: (enzymatic assay (fluorogenic substrate cleavage)) EUB0002198aAD CASP8. More on the design: mode of action Inhibitor, recommended concentration 1 uM. Format: functional.
Experiment [6] concerns the target T4, Caspase-1 (Homo sapiens, UniProt P29466). The experiment can be described thus: Affinity Biochemical interaction: (enzymatic assay (fluorogenic substrate cleavage)) EUB0002198aAD CASP1. Format: functional. More on the design: mode of action Inhibitor, recommended concentration 1 uM.
Experiment [7] concerns the target Protein arginine N-methyltransferase 6 (Homo sapiens, UniProt Q96LA8). The experiment can be described thus: Affinity Biochemical interaction: (enzymatic assay (inhibition of methyl transfer from radiolabelled substrate [3H]SAM to peptide)) EUB0002245aCl PRMT6. Format: functional. More on the design: mode of action Inhibitor, recommended concentration 1 uM.
Experiment [8] has as its target Protein arginine N-methyltransferase 8 (Homo sapiens, UniProt Q9NR22). The experiment can be described thus: Affinity Biochemical interaction: (enzymatic assay (inhibition of methyl transfer from radiolabelled substrate [3H]SAM to peptide)) EUB0002245aCl PRMT8. More on the design: mode of action Inhibitor, recommended concentration 1 uM. Format: functional.
The target in experiment [9] is Histone-arginine methyltransferase CARM1 (Homo sapiens, UniProt Q86X55). The experiment can be described thus: Affinity Biochemical interaction: (enzymatic assay (inhibition of methyl transfer from radiolabelled substrate [3H]SAM to peptide)) EUB0002245aCl CARM1. Format: functional. More on the design: mode of action Inhibitor, recommended concentration 1 uM.
Experiment [10] has as its target T3, Caspase-8. The experiment can be described thus: Affinity Biochemical interaction: (enzymatic assay (fluorogenic substrate cleavage)) EUB0002173aAD CASP8. More on the design: mode of action Inhibitor, recommended concentration 1 uM. Format: functional.
The target of another experiment is Caspase-10 (Homo sapiens, UniProt Q92851). The experiment can be described thus: Affinity Biochemical interaction: (enzymatic assay (fluorogenic substrate cleavage)) EUB0002173aAD CASP10. Format: functional. More on the design: mode of action Inhibitor, recommended concentration 1 uM.
The target in experiment [11] is T5, Caspase-7 (Homo sapiens, UniProt P55210). The experiment can be described thus: Affinity Biochemical interaction: (enzymatic assay (fluorogenic substrate cleavage)) EUB0002173aAD CASP7. More on the design: mode of action Inhibitor, recommended concentration 1 uM. Format: functional.
Experiment [12] is described as follows: Affinity Biochemical interaction: (enzymatic assay (fluorogenic substrate cleavage)) EUB0002134a CAPN2.
The target of experiment [13] is T6, Caspase-9 (Homo sapiens, UniProt P55211). The experiment can be described thus: Affinity Biochemical interaction: (peptide substrate detection probe bound to magnetic beads, detection of liberated fluorophores) EUB0002203aAD CASP9. Format: functional. More on the design: mode of action Inhibitor, recommended concentration 1 uM.
Another experiment concerns the target Caspase-2 (Homo sapiens, UniProt P42575). The experiment can be described thus: Affinity Biochemical interaction: (enzymatic assay (fluorogenic substrate cleavage)) EUB0002196a CASP2. Format: functional. More on the design: mode of action Inhibitor, recommended concentration 1 uM.
For experiment [14], the target named is T7, Caspase-3 (Homo sapiens, UniProt P42574).
T7 sequence (P42574 whole entry): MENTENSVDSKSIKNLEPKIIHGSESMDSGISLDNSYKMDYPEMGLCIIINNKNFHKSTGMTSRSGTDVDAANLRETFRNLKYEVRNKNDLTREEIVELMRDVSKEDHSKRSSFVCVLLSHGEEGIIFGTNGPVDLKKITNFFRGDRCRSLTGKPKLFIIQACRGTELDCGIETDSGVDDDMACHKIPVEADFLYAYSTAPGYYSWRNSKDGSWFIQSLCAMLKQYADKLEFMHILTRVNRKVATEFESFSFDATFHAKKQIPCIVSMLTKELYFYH
The experiment can be described thus: Affinity Biochemical interaction: (enzymatic assay (fluorogenic substrate cleavage)) EUB0002196a CASP3. Format: functional. More on the design: mode of action Inhibitor, recommended concentration 1 uM.

In experiment [15] the target is T5, Caspase-7. The experiment can be described thus: Affinity Biochemical interaction: (enzymatic assay (fluorogenic substrate cleavage)) EUB0002196a CASP7. Format: functional. More on the design: mode of action Inhibitor, recommended concentration 1 uM.
The target of the next experiment is Caspase-4 (Homo sapiens, UniProt P49662). The experiment can be described thus: Affinity Biochemical interaction: (enzymatic assay (fluorogenic substrate cleavage)) EUB0002201a CASP4. Format: functional. More on the design: mode of action Inhibitor, recommended concentration 1 uM.
The target of experiment [16] is T7, Caspase-3. The experiment can be described thus: Affinity Biochemical interaction: (enzymatic assay (fluorogenic substrate cleavage)) EUB0002190aAD CASP3. Format: functional. More on the design: mode of action Inhibitor, recommended concentration 1 uM.
Experiment [17] deals with T4, Caspase-1. The experiment can be described thus: Affinity Biochemical interaction: (enzymatic assay (fluorogenic substrate cleavage)) EUB0002190aAD CASP1. Format: functional. More on the design: mode of action Inhibitor, recommended concentration 1 uM.
Experiment [18] has as its target T6, Caspase-9. The experiment can be described thus: Affinity Biochemical interaction: (enzymatic assay (fluorogenic substrate cleavage)) EUB0002190aAD CASP9. More on the design: mode of action Inhibitor, recommended concentration 1 uM. Format: functional.
Experiment [19] has as its target T3, Caspase-8. The experiment can be described thus: Affinity Biochemical interaction: (enzymatic assay (fluorogenic substrate cleavage)) EUB0002190aAD CASP8. Format: functional. More on the design: mode of action Inhibitor, recommended concentration 1 uM.
A further experiment deals with Caspase-6 (Homo sapiens, UniProt P55212). The experiment can be described thus: Affinity Biochemical interaction: (enzymatic assay (fluorogenic substrate cleavage)) EUB0002190aAD CASP6. More on the design: mode of action Inhibitor, recommended concentration 1 uM. Format: functional.
The target in experiment [20] is T8, Histone-lysine N-methyltransferase EZH1 (Homo sapiens, UniProt Q92800). The experiment can be described thus: Affinity Biochemical interaction: (inhibition of EZH1 for both SAM and peptide substrates using a Flashplate assay to measure the transfer of a tritiated methyl group from SAM to the peptide) EUB0002228a EZH1. Format: functional. More on the design: mode of action Inhibitor, recommended concentration 1 uM.

The target in experiment [21] is T8, Histone-lysine N-methyltransferase EZH1. The experiment can be described thus: Affinity Biochemical interaction: (ELISA-based protein substrate methylation assay) EUB0002228a EZH1. Format: functional. More on the design: mode of action Inhibitor, recommended concentration 1 uM. In general terms: An ELISA detects its analyte on a solid surface through an enzyme-linked reagent.

Experiment [22] has as its target Histone-lysine N-methyltransferase SMYD3 (Homo sapiens, UniProt Q9H7B4). The experiment can be described thus: Affinity Biochemical interaction: (inhibition of methylation activity, scintillation proximity assay utilizing [3 H]-SAM with specific product capture of biotin-tagged peptides on streptavidin SPA beads) EUB0002243aAD SMYD3. Format: functional. More on the design: mode of action Inhibitor, recommended concentration 1 uM. In general terms: In a scintillation proximity assay essentially only radioactivity close to the scintillant gives light.

T3 sequence (Q14790 217-374 limits assumed): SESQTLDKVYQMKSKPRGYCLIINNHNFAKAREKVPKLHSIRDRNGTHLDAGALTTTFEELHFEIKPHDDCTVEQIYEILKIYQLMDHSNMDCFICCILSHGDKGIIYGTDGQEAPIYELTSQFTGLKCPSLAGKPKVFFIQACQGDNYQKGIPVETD
T3 sequence (Q14790 385-479 limits assumed): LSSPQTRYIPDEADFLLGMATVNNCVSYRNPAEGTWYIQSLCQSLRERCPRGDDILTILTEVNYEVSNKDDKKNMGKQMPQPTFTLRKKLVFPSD
T5 sequence (P55210 24-198 limits assumed): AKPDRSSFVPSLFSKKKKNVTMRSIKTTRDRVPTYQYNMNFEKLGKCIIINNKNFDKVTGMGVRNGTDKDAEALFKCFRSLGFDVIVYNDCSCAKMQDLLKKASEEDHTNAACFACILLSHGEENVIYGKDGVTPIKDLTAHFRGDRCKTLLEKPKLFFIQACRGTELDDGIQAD
T5 sequence (P55210 207-303 limits assumed): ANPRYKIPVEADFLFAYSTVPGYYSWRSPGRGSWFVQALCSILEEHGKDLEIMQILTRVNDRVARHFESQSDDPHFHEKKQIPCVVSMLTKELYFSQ
Sequence of Histone-lysine N-methyltransferase SMYD3 (Q9H7B4 whole entry): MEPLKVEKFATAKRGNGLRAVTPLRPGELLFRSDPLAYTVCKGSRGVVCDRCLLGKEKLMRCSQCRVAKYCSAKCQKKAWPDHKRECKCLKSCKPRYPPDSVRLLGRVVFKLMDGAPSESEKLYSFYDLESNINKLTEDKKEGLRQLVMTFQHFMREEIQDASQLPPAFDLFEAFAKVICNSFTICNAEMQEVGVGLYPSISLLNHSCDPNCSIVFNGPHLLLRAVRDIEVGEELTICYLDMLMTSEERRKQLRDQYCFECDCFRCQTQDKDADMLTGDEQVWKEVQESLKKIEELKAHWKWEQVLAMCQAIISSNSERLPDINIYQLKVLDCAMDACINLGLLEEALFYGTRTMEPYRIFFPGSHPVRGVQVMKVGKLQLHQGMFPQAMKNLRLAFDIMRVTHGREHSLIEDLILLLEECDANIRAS
T6 sequence (P55211 1-315 limits assumed): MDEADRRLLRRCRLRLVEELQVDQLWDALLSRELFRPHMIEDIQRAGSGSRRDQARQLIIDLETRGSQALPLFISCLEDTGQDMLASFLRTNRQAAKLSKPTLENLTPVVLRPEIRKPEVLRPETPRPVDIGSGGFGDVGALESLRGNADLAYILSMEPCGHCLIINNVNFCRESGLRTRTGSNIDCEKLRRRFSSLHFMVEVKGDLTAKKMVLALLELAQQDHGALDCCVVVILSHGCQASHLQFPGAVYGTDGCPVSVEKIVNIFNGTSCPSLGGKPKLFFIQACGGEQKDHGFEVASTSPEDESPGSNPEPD
T6 sequence (P55211 331-416 limits assumed): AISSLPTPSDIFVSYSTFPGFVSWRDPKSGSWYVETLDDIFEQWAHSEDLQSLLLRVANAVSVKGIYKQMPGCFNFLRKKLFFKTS
T2 sequence (Q92794 whole entry): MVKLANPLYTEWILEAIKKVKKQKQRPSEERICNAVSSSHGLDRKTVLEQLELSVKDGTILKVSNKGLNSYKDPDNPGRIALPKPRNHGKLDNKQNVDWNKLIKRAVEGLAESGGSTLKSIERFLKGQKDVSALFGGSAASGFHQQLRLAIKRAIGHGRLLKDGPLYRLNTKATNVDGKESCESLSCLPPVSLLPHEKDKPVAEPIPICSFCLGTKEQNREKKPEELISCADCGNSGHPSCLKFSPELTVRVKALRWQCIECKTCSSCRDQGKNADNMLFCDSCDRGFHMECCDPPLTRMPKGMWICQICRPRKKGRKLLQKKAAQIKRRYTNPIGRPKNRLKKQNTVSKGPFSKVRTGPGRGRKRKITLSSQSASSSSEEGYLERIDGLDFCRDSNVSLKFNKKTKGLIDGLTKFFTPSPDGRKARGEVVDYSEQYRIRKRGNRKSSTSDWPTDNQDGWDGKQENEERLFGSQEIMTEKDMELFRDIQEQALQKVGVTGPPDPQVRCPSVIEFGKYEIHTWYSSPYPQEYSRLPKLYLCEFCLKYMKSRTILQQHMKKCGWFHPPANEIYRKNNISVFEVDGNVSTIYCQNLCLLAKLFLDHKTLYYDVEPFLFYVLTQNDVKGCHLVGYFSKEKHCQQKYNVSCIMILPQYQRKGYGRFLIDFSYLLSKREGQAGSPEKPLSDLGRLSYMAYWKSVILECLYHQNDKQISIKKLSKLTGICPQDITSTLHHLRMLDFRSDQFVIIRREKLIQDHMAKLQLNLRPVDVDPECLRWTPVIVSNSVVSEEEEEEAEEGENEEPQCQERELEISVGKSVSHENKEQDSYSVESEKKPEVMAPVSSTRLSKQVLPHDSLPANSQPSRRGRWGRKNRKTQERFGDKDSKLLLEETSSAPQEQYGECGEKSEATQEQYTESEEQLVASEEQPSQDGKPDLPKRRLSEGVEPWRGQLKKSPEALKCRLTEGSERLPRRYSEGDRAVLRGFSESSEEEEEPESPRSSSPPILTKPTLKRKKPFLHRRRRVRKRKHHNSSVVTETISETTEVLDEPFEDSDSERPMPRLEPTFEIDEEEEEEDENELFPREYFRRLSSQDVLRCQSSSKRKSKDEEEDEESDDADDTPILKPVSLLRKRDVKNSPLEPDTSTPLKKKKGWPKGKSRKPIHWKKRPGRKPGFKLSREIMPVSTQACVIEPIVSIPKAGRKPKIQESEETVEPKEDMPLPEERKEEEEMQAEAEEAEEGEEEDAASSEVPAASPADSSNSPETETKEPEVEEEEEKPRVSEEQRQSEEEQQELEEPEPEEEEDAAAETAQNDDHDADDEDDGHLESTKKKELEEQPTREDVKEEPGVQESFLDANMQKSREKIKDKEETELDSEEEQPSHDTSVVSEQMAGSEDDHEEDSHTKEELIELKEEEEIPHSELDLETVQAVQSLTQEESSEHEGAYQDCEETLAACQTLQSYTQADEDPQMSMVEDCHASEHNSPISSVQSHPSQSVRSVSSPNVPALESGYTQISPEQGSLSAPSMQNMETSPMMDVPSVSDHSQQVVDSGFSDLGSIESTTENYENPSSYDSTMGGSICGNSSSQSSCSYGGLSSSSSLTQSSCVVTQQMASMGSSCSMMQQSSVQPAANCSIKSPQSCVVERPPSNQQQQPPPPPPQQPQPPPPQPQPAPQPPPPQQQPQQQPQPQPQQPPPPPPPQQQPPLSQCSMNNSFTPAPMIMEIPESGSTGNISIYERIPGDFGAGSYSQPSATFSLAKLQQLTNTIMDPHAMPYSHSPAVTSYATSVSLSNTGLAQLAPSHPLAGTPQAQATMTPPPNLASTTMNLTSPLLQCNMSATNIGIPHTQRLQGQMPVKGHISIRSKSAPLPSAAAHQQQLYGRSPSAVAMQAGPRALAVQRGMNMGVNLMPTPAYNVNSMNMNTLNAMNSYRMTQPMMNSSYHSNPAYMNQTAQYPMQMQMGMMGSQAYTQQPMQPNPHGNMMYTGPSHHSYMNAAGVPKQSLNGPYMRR
Sequence of Protein arginine N-methyltransferase 8 (Q9NR22 whole entry): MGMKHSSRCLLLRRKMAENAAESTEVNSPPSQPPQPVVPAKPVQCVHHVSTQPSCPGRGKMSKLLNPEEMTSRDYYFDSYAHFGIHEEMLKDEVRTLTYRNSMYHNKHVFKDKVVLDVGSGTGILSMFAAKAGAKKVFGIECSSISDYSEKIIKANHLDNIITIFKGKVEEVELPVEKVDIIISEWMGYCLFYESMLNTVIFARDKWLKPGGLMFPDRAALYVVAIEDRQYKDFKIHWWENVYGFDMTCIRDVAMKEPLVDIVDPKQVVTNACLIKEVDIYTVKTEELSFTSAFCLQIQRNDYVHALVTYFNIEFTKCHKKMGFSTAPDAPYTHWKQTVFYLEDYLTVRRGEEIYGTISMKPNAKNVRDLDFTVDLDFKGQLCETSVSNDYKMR
T8 sequence (Q92800 whole entry): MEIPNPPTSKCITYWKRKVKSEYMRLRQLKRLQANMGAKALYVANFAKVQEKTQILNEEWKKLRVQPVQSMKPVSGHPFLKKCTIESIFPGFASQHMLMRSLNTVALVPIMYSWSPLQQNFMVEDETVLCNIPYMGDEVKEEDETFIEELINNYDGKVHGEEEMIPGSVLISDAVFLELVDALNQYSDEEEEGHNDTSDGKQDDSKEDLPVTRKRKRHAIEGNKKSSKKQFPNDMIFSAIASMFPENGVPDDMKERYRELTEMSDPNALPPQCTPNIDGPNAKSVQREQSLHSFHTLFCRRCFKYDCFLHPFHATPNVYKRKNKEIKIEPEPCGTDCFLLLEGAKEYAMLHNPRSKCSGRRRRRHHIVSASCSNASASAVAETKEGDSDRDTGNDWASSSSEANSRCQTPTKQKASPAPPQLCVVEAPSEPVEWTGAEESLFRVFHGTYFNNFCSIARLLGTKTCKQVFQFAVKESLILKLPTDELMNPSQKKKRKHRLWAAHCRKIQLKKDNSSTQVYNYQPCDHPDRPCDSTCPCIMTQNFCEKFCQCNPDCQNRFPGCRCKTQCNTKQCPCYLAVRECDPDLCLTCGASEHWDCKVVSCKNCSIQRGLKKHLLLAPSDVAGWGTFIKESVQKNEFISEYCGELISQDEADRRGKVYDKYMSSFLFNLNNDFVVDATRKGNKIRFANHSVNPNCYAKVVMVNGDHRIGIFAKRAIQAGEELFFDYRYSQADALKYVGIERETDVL
T4 sequence (P29466 120-297 limits assumed): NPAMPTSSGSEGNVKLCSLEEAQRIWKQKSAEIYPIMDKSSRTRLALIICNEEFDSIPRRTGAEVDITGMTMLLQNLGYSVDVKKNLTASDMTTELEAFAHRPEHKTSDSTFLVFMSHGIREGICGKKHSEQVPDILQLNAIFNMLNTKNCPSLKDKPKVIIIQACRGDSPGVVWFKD
T4 sequence (P29466 317-404 limits assumed): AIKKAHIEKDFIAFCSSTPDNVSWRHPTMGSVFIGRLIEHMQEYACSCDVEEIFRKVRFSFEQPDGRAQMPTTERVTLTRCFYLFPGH

For `Cc1cc(-c2ccccc2)cc(C(=O)NNS(=O)(=O)c2cccc(O)c2)c1F`, the IC50 (commonly the concentration needed to halve the response being measured) in [1] is 30 nM; in experiment [3], 17 nM. Further, the Kd (usually the constant that tells how readily two partners part at equilibrium) in experiment [2] amounted to 7 nM; in experiment [4], 34 nM.
Regarding `CC(=O)N[C@@H](CC(C)C)C(=O)N[C@@H](CCC(=O)O)C(=O)N[C@@H](Cc1cnc[nH]1)C(=O)N[C@H](C=O)CC(=O)O` (Ac-LEHD-aldehyde), the results for the IC50 at Caspase-8 [5] and against Caspase-1 [6] were 3.82 nM and 15 nM, respectively.
For the compound `CCOCC1(COCC)CCC(c2n[nH]cc2CN(C)CCNC)CC1`, the IC50 in experiment [7] was determined as 4.7 nM; in experiment [8], 3.9 nM; in experiment [9], 38 nM. For the same compound, the inhibition constant Ki (usually the equilibrium dissociation constant of an inhibitor or competing ligand from its target) stood at 2.4 nM in experiment [7], 2 nM in experiment [8] and 19 nM in [9].
Consider `CC(=O)N[C@@H](CC(=O)O)C(=O)N[C@@H](CCC(=O)O)C(=O)N[C@H](C(=O)N[C@H](C=O)CC(=O)O)C(C)C`, for which the Ki is 0.92 nM at Caspase-8 [10], 12 nM at Caspase-10 and 1.6 nM at Caspase-7 [11].
Consider `CCCC(NC(=O)C(CC(C)C)NC(=O)OCc1ccccc1)C(=O)C(=O)NCc1ccccn1` (racemic), for which, in experiment [12], the Ki amounted to 120 nM.
In the case of `CC(=O)N[C@@H](CC(C)C)C(=O)N[C@@H](CCC(=O)O)C(=O)N[C@@H](Cc1cnc[nH]1)C(=O)N[C@@H](CC(=O)O)C(=O)CCl` (Ac-LEHD-CH2Cl), the concentration for half-maximal inhibition (IC50) at Caspase-9 [13] is 72.8 nM.
Turning to `CC(=O)N[C@H](C(=O)N[C@@H](CC(=O)O)C(=O)N[C@H](C(=O)N[C@@H](C)C(=O)N[C@H](C=O)CC(=O)O)C(C)C)C(C)C` (Ac-VDVAD-aldehyde), the figures for the Ki at Caspase-2, at Caspase-3 [14] and at Caspase-7 [15] were 3.5 nM, 1 nM and 7.5 nM, respectively.
Turning to `CC(=O)N[C@@H](CC(C)C)C(=O)N[C@@H](CCC(=O)O)C(=O)N[C@H](C(=O)N[C@H](C=O)CC(=O)O)C(C)C` (Ac-LEVD-aldehyde), the IC50 at Caspase-4 was determined as 84 nM.
In the case of `CC(C)[C@H](NC(=O)[C@H](CCC(=O)O)NC(=O)[C@H](C)NC(=O)OC(C)(C)C)C(=O)N[C@H](C=O)CC(=O)O` (Boc-AEVD-aldehyde), the Ki at Caspase-3 [16] was 42 nM; on Caspase-1 [17] it was less than 12 nM; at Caspase-9 [18] it was 48 nM; on Caspase-8 [19] it was 1.6 nM; on Caspase-6, 52 nM.
Compound `CCN(c1cc(C#CCN2CCOCC2)cc(C(=O)NCc2c(C)cc(C)[nH]c2=O)c1C)[C@H]1CC[C@H](N(C)CCOC)CC1` displayed a Ki in experiment [20] of 45 nM. Also, in [21], the IC50 was 103 nM.
In [22], `CN(C)CCCN(CC[C@H](N)C(=O)O)C[C@H]1O[C@@H](n2cnc3c(N)ncnc32)[C@H](O)[C@@H]1O` came in with an IC50 of 130 nM and a Ki of 14 nM.
